Assay results published in patent publication US20110237538A1, “TREATMENT OF LYSOSOMAL STORAGE DISORDERS AND OTHER PROTEOSTATIC DISEASES” (SUMMIT CORPORATION PLC, priority 2008, published 2011).
Each block holds one compound with its values, some of them ahead of it.

Legend:
Format in all cases: biochemical
[1] = target: T1, α-D-galactosidase (green coffee beans) (Coffea arabica, UniProt Q42656); assay: glycosidase assay with p-nitrophenyl substrates (Example 2); conditions: 10 μl of 5 mM iminosugar solution in 70 μl incubation mixture; 20° C.; read-out: Promotion of glycosidase activity: α-D-galactosidase (Green coffee bean)
T1 construct: purchased Sigma Aldrich Chemicals Limited
Protocol: (§1) The assays were conducted as described by Watson et al. 1997, Phytochemistry 46: 255-259 using p-nitrophenyl-substrates. Assays were carried out in microtitre plates. Enzymes were assayed in 0.1M citric acid/0.2M di-sodium hydrogen phosphate (Mcllvaine) buffers at the optimum pH for the enzyme. All assays were carried out at 20° C. All enzymes and substrates were purchased from Sigma Aldrich Chemicals Limited. The incubation mixture consisted of 10 μl of enzyme solution, 10 μl of the iminosugars solution (made up in deionised water at 5 mM) and 50 μl of the appropriate 5 mM p-nitrophenyl substrate made up in McIlvaine buffer at the optimum pH for the enzyme. The reactions were stopped with 0.4M glycine (pH 10.4) during the exponential phase of the reaction, which was determined at the beginning of the assay using blanks with water, which were incubated for a range of time periods to measure the reaction rate using 5 mM substrate solution. Absorbances were read at 405 nm. Water was substituted for the inhibitors in the blanks.
(§2) The glycosidases used were α-D-glucosidase (yeast), α-D-glucosidase (Bacillus sterothermophilus), α-D-glucosidase (rice), amyloglucosidase (Aspergillus niger), β-D-glucosidase (almond), α-D-galactosidase (green coffee beans), β-D-galactosidase (bovine liver), α-L-fucosidase (bovine kidney), α-D-mannosidase (Jack bean), β-D-mannosidase (Cellullomonas fimi), Naringinase (Penicillium decumbens), N-acetyl-β-D-glucosaminidase (Bovine kidney), N-acetyl-β-D-glucosaminidase (Aspergillus oryzae) and N-acetyl-β-D-glucosaminidase (Jack bean)

[2] = system: α-D-glucosidase (Bacillus sterothermophilus); assay: as above; conditions: 10 μl of 5 mM iminosugar solution in 70 μl incubation mixture; 20° C.
Protocol: as §1, §2

[3] = target: T2, wild type (wt) alpha-galactosidase (Homo sapiens, UniProt P06280); assay: alpha-galactosidase activity assay in HL60 lysate (4MU-α-D-gal); conditions: at a concentration of 100 uM, 0.5 mM 4MU-α-D-gal, pH 4.5
T2 construct: The lysates were used as a source for wild type (wt) alpha-galactosidase; endogenous in cells; host or cells: HL60 (ECACC No. 98070106) lysate
T2 sequence (P06280 32-429): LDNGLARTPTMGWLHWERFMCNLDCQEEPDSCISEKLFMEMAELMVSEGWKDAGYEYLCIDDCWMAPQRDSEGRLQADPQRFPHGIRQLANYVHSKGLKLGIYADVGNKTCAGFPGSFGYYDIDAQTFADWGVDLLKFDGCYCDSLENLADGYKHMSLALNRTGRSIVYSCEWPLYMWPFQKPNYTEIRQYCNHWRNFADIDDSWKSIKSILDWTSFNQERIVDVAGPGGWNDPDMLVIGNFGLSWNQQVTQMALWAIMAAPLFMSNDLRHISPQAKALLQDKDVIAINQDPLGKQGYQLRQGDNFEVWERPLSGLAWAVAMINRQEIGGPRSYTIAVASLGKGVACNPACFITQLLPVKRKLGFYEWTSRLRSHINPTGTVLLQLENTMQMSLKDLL

[4] = target: T3, wild type (wt) beta-glucocerebrosidase (Homo sapiens, UniProt P04062); assay: beta-glucocerebrosidase activity assay in HL60 lysate (4MU-β-D-glc); conditions: at a concentration of 100 μM, 0.5 mM 4MU-β-D-glc;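 also: fluorometric read-out of 4MU liberated from the substrate (ex 360 nm, em 450 nm) after 37 °C incubation, reaction stopped with sodium carbonate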
T3 construct: The lysates were used as a source for wild type (wt) beta-glucocerebrosidase; endogenous in cells; host or cells: HL60 (ECACC No. 98070106) lysate
T3 sequence (P04062 40-536): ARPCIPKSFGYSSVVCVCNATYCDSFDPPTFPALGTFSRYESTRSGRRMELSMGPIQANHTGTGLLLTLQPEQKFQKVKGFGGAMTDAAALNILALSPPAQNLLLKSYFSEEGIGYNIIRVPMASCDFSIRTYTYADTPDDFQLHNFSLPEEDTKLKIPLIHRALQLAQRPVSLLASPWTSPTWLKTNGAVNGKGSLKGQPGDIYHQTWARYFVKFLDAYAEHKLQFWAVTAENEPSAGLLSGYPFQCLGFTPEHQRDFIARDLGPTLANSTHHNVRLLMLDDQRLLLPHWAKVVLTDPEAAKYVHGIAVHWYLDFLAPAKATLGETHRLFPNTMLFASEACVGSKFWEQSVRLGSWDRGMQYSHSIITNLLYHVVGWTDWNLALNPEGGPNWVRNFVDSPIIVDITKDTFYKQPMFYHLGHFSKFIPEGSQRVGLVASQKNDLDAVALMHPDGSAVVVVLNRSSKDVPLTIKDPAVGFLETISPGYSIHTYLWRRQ

[5] = target: T4, wild type (wt) lysosomal alpha-glucosidase (Homo sapiens, UniProt P10253); assay: alpha-glucosidase activity assay in HL60 lysate (4MU-α-D-glc); conditions: at a concentration of 100 uM, 0.5 mM 4MU-α-D-glc, pH 4.5;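 also: fluorometric rate of 4MU product release read at 360 nm excitation and 450 nm emission, reactions run at 37 °C in citric phosphate buffer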
T4 construct: The lysates were used as a source for wild type (wt) lysosomal alpha-glucosidase; endogenous in cells; host or cells: HL60 (ECACC No. 98070106) lysate

T1 sequence (Q42656 16-378): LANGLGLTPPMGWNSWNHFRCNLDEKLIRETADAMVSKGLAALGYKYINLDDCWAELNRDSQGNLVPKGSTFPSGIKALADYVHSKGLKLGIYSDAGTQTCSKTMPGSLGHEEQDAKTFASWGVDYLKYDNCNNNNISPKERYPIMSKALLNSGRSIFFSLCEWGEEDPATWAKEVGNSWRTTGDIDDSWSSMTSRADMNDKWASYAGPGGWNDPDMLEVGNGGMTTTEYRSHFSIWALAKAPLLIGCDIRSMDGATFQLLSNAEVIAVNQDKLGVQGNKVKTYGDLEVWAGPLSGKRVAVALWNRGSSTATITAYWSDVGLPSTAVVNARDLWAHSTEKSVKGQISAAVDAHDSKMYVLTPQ

SMILES: CCCCN1C[C@@H](NC(C)=O)C[C@H]1CO [Compound 350, N-((3S,5S)-1-butyl-5-(hydroxymethyl)pyrrolidin-3-yl)acetamide]
- activation at 714 µM [1]: 38%
- Promotion of glycosidase activity: α-D-glucosidase (Bacillus sterothermophilus) [2]: 160 % increase in absorbance compared to the water controls

SMILES: N[C@@H]1CN(Cc2ccccc2)[C@H](CO)[C@H]1O [Compound 370, (2R,3S,4R)-4-amino-1-benzyl-2-(hydroxymethyl)pyrrolidin-3-ol]
- activation at 714 µM [1]: 43%
- Promotion of glycosidase activity: α-D-glucosidase (Bacillus sterothermophilus) [2]: 81 % increase in absorbance compared to the water controls

SMILES: CC(=O)N[C@H]1C[C@@H](CO)N(CCO)C1 [Compound 347, N-((3S,5S)-1-(2-hydroxyethyl)-5-(hydroxymethyl)pyrrolidin-3-yl)acetamide]
- Promotion of glycosidase activity: α-D-glucosidase (Bacillus sterothermophilus) [2]: 68 % increase in absorbance compared to the water controls

SMILES: CCCCOC(=O)[C@@H]1[C@@H](O)[C@H](O)[C@@H](O)CN1CCCC [Compound 205, (2S,3R,4R,5S)-butyl 1-butyl-3,4,5-trihydroxypiperidine-2-carboxylate]
- Promotion of glycosidase activity: α-D-glucosidase (Bacillus sterothermophilus) [2]: 60 % increase in absorbance compared to the water controls

SMILES: C=CCC[C@H]1N[C@@H](CO)[C@H](O)[C@@H](O)[C@@H]1O [Compound 380, (2R,3R,4S,5S,6S)-2-(but-3-enyl)-6-(hydroxymethyl)piperidine-3,4,5-triol]
- inhibition at 100 µM [3]: > 50%

SMILES: CCCCCCCCCN1C[C@H](NC(C)=O)[C@@H](O)[C@@H]1CO [Compound 338, N-((3S,4R,5S)-4-hydroxy-5-(hydroxymethyl)-1-nonylpyrrolidin-3-yl)acetamide]
- activation at 714 µM [1]: 35%
- Promotion of glycosidase activity: α-D-glucosidase (Bacillus sterothermophilus) [2]: 170 % increase in absorbance compared to the water controls

SMILES: N[C@@H]1CN[C@H](CO)C1 [Compound 344, ((2S,4S)-4-aminopyrrolidin-2-yl)methanol]
- Promotion of glycosidase activity: α-D-glucosidase (Bacillus sterothermophilus) [2]: 71 % increase in absorbance compared to the water controls

SMILES: CN1C[C@@H](O)[C@H](O)[C@@H](O)C1 [Compound 253, (3R,4r,5S)-1-methylpiperidine-3,4,5-triol]
- Promotion of glycosidase activity: α-D-glucosidase (Bacillus sterothermophilus) [2]: 56 % increase in absorbance compared to the water controls

SMILES: O[C@@H]1[C@@H](O)[C@H](O)[C@]2(O)CC[C@H]1N2 [Compound 21, (1R,2S,3R,4S,5R)-8-azabicyclo[3.2.1]octane-1,2,3,4-tetraol]
- inhibition at 100 µM [4]: > 50%
- inhibition at 100 µM [3]: > 50%

SMILES: OC[C@H]1NC[C@@H](O)[C@H](O)[C@H]1O [Compound 447, (2R,3S,4S,5R)-2-(hydroxymethyl)piperidine-3,4,5-triol]
- inhibition at 100 µM [3]: > 50%

SMILES: C[C@H]1N[C@H](CO)[C@H](O)[C@H](O)[C@H]1O [Compound 263, (2R,3S,4R,5S,6R)-2-(hydroxymethyl)-6-methylpiperidine-3,4,5-triol]
- inhibition at 100 µM [3]: > 50%

SMILES: N[C@H]1CN(Cc2ccccc2)[C@@H](CO)[C@@H]1O [Compound 312, (2S,3R,4S)-4-amino-1-benzyl-2-(hydroxymethyl)pyrrolidin-3-ol]
- activation at 714 µM [1]: 30%
- Promotion of glycosidase activity: α-D-glucosidase (Bacillus sterothermophilus) [2]: 52 % increase in absorbance compared to the water controls

Second part, the compound after the results:

- inhibition at 100 µM [3]: > 50%
SMILES: C[C@H]1N[C@@H](CO)[C@H](O)[C@H](O)[C@H]1O [Compound 264, (2S,3S,4R,5S,6R)-2-(hydroxymethyl)-6-methylpiperidine-3,4,5-triol]

- inhibition at 100 µM [3]: > 50%
SMILES: OCCN1[C@H](CO)[C@H](O)[C@H](O)[C@H]1CO [Compound 168, (2R,3R,4S,5R)-1-(2-hydroxyethyl)-2,5-bis(hydroxymethyl)pyrrolidine-3,4-diol]

- inhibition at 100 µM [3]: > 50%
SMILES: OC[C@H]1N[C@H](CO)[C@H](O)C(O)[C@H]1O (stereo partly drawn) [Compound 189, (2R,3S,5S,6R)-2,6-bis(hydroxymethyl)piperidine-3,4,5-triol]

- inhibition at 100 µM [3]: > 50%
SMILES: O=C1N[C@H](CO)[C@@H](O)[C@H](O)[C@@H]1O [Compound 112, (3S,4S,5R,6R)-3,4,5-trihydroxy-6-(hydroxymethyl)piperidin-2-one]

- inhibition at 100 µM [3]: > 50%
SMILES: C[C@H]1NC[C@H](O)[C@@H](O)[C@H]1O [Compound 258, (2R,3S,4R,5S)-2-methylpiperidine-3,4,5-triol]

- inhibition at 100 µM [3]: > 50%
SMILES: OC[C@H]1NC[C@H](O)[C@@H](O)[C@H]1O [Compound 215, (2R,3S,4R,5S)-2-(hydroxymethyl)piperidine-3,4,5-triol]

- inhibition at 100 µM [3]: > 50%
SMILES: C[C@@H]1N[C@@H](CO)[C@H](O)[C@H](O)[C@H]1O [Compound 269, (2S,3S,4R,5S,6S)-2-(hydroxymethyl)-6-methylpiperidine-3,4,5-triol]

- inhibition at 100 µM [3]: > 50%
SMILES: CNC(=O)[C@H]1N[C@H](CO)[C@@H](O)[C@H](O)[C@@H]1O [Compound 246, (2S,3R,4S,5R,6R)-3,4,5-trihydroxy-6-(hydroxymethyl)-N-methylpiperidine-2-carboxamide]

- inhibition at 100 µM [5]: > 50%
- inhibition at 100 µM [4]: > 50%
SMILES: OC[C@@H]1NC[C@H](O)[C@H]1O [Compound 160, (2S,3S,4S)-2-(hydroxymethyl)pyrrolidine-3,4-diol]
